US20240228434A1, “PRODRUGS OF KV7 CHANNEL OPENERS” (Xyzagen, Inc., priority 2021, published 2024)

Key:
MES induced seizures [1] = experiment: Mouse maximal electroshock (MES) assay of Compound 29, oral; assay type: in vivo, CF-1 mouse; conditions: oral 30 mg/kg; 0.25, 0.5 and 1 h
Source text: (§1) Each male CF-1 mouse provided one data point in the MES assay and one data point in the concentration analysis. There were 8 mice per time point.

[2] = Acid and organic solution stability, HPLC-UV 250 nm; conditions: 5 mg/mL; for Degradation / conversion to ezogabine in solution (summary): up to 3 weeks
Procedure: An HPLC-UV Vis method was developed using 0.1% Formic acid in water as mobile phase A and 0.1% Formic acid in acetonitrile as mobile Phase B. A gradient method was developed ramping from 10% A to 90% B over 8 minutes and then returning to 10% A at 8.5 minutes on a 4.6×50 mm Zorbax C-18 column. Injections of 10 uL of stability solutions were injected for analyte detection.
[…] Aliquots were collected at serial time points and then diluted to a nominal concentration of 100 ug/mL for injection to the HPLC and 250 nm monitored by the diode array detector. Data at approximately 10 days is presented.
Aliquots were collected at serial time points and then diluted to a nominal concentration of 100 ug/mL for injection to the HPLC and 250 nm monitored by the diode array detector.
(§2) It was also evaluated at 2 N HCl at 37° C. Aliquots were collected at serial time points and then diluted to a nominal concentration of 100 ug/mL for injection to the HPLC and 250 nm monitored by the diode array detector.
as §2, §2, §2

[3] = Rat PK at equimolar dose to Ezogabine (20 mg/kg) in 0.5% methylcellulose; conditions: for Exposure of ezogabine (dose normalized AUC) compared with ezogabine itself: rats, equimolar dose to Ezogabine 20 mg/kg
Procedure: (§3) Blood samples were collected at the same time points over 24 hours to generate a concentration time profile. Two male rats were dosed per group. Plasma samples were analyzed by LC/MS/MS and the resulting concentration time profiles and PK parameters are provided.
as §3, §3

[4] = Plasma and brain concentration after oral Compound 29; conditions: oral 30 mg/kg Compound 29, 0.25, 0.5 and 1 h
Source text: as §1

[5] = Drug concentration in plasma and brain after Compound 28 IP; conditions: CF-1 mice, 30 minutes
MES induced seizures [6] = experiment: Maximal electroshock assay of Compound 28, IP; assay type: in vivo, CF-1 mice; conditions: for Animals protected from MES induced seizures: 30 minutes after administration
[7] = male jugular vein cannulated rats, dose equimolar to Ezogabine 20 mg/kg, 0.5% methylcellulose in water, 24 hours, analyte the dosed prodrug
[8] = male jugular vein cannulated rats, dose equimolar to Ezogabine 20 mg/kg, 0.5% methylcellulose in water, analyte the dosed prodrug

CCNC(=O)CC[C@H](N)C(=O)Nc1cc(NCc2ccc(F)cc2)ccc1NC(=O)OCC.Cl [Compound 29]
Pharmacological response in MES over time (MES induced seizures [1]): reduced in tandem to the decrease in brain concentrations | Degradation / conversion to ezogabine in solution (summary) [2]: degradation under acidic conditions and also conversion to ezogabine | Ezogabine Area ([2]; 0.1N HCl, room temp., normal light, 441 h): 0 mAU | Ezogabine Area ([2]; 1N HCl, room temp., normal light, 441 h): 1241 mAU | Ezogabine Area ([2]; 2N HCl 37 C., 441 h): 1755 mAU | Ezogabine Area ([2]; 2N HCl, room temp., normal light, 441 h): 1659 mAU | Ezogabine Area ([2]; Methanol, room temp., normal light, 441 h): 0 mAU | AUClast [3, 7]: 6110 ng·h/mL | Cmax/D ([3]; male jugular vein cannulated rats, dose equimolar to Ezogabine 20 mg/kg, 0.5% methylcellulose in water, analyte Ezogabine): 23.3 ng/mL/mg/kg | Cmax [3, 8]: 883 ng/mL | Cmax/D [3, 8]: 44.2 ng/mL/mg/kg | Tmax [3, 8]: 9.6 min | Exposure of ezogabine (dose normalized AUC) compared with ezogabine itself [3]: similar | Exposure of ezogabine [4]: very high in plasma and was present in brain

CCOC(=O)Nc1ccc(NCc2ccc(F)cc2)cc1NC(=O)C[C@@H](CN)CC(C)C [Compound 28]
Concentration of the prodrug compared with ezogabine [5]: present at higher concentrations than ezogabine | Degradation / conversion to ezogabine in solution (summary) [2]: degradation to ezogabine with increasing strength of the acidic solution | Ezogabine Area ([2]; 0.1N HCl, room temp., normal light, 440 h): 0 mAU | Ezogabine Area ([2]; 1N HCl, room temp., normal light, 440 h): 568 mAU | Ezogabine Area ([2]; 2N HCl 37 C., 440 h): 3593 mAU | Ezogabine Area ([2]; 2N HCl, room temp., normal light, 440 h): 1462 mAU | Appearance of the stability solution ([2]; 11 days): clear and colorless through Day 11 | % Remaining ([2]; 440 h): 92.0% | Ezogabine Area ([2]; Acetonitrile, room temp., normal light, 440 h): 248 mAU | Ezogabine Area ([2]; Methanol, room temp., normal light, 440 h): 0 mAU | AUClast/D [3, 7]: 83.0 ng·h/mL/mg/kg | Cmax/D [3, 8]: 9.31 ng/mL/mg/kg | Exposure of ezogabine (dose normalized AUC) compared with ezogabine itself [3]: lower exposure | Animals protected from MES induced seizures (MES induced seizures [6]; IP 12 mg/kg): 1 of 9 | Animals protected from MES induced seizures (MES induced seizures [6]; IP 24 mg/kg): 3 of 9 | Protection against MES induced seizures, dose response (MES induced seizures [6]; IP 1.5, 3, 6, 12 and 24 mg/kg): None of the doses showed complete protection
